Several values for one entry are separate records, joined by “and”; a condition that tells them apart may be missing. Identical values can stand only once. Where a SMILES comes first, the peptide text is derived from it. Bridges are numbered along the chain shown (N, C = ends). [ ]: non-standard residue; d: D form. Ala(cPent) = N[C@@H](CC1CCCC1)C(=O)O; AllylGly = C=CC[C@H](N)C(=O)O
Columns and labels:
[1] = target: T1, hNTS1 receptor (Homo sapiens, UniProt P30989); test: Competitive radioligand binding assay on the hNTS1 receptor; conditions: IC50 NTS1, displacement of 125I-[Tyr3]-NT, membranes of CHO-K1 cells expressing hNTS1
T1 construct: membranes prepared from them
T1 sequence (P30989 whole entry): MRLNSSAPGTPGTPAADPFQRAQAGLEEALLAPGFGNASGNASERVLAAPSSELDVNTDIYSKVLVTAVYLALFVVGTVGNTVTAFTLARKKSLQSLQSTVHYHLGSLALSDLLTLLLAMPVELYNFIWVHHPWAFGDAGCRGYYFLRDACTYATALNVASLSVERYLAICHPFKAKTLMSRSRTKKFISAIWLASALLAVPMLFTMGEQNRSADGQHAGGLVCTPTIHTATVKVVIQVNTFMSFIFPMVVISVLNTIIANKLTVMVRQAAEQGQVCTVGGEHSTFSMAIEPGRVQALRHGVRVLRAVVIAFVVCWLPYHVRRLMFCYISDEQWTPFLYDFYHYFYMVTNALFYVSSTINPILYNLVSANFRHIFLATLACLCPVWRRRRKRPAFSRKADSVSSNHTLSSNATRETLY
Procedure, shortened: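 IC50 values came from one-site competition curves against ¹²⁵I-[Tyr³]-NT after 60 min at 25 °C (pH 7.5 Tris, 0.2% BSA), with analogues at 10⁻¹¹–10⁻⁴ M and nonspecific binding set by 10⁻⁵ M NT(8-13). hNTS1 used 15 µg CHO-K1 membranes with […] tracer; hNTS2 used 50 µg 1321N1 membranes with […] tracer.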

[2] = system: Sprague-Dawley rats; test: Tail-flick test (acute thermal pain), intrathecal injection; type: in vivo, rat; conditions: for ED50, tail-flick test: from % MPE at 10 min post-injection, rat; for tail-flick latency time compared to saline injection: i.t. 10 to 150 μg/kg (compound 34) or 3 to 61 nmol/kg (compound 67); for % MPE: 10 min post-injection
Method: Rats were housed two per cage on Aspen shavings in a quiet room and kept on a 12 h light/dark cycle and allowed ad libitum access to food and water. The experimental procedures in this study were approved by the Animal Care Committee of Université de Sherbrooke and were in accordance with policies and directives of the Canadian Council on Animal Care.
Tail-flick test: The tail flick test was used as outcome measures heat-induced pain in animals and as indicators of a compound's analgesic efficacy.
Acute pain was assessed using the Tail flick test (Tail Flick Analgesia meterV2.00, Colombus Instruments, Columbus, Ohio, USA). Tail flick test measures sensitivity to a high-intensity light beam focused on the rat tail. The tail flick apparatus was set at a light intensity of 6 and a cutoff of 10 seconds. The latency to flick the tail out of the path of the light beam corresponds to the measure of pain sensitivity or analgesia.
Before testing, animals were individually acclimatized to manipulations and behavioral apparatus 5 min/day for three consecutive days. On the test day, latencies baseline measures were taken before drug injection to provide a mean baseline. The compounds were diluted in 0.9% saline at the desired dose. The effects of the compound or saline on thermal nociception were assessed every 10 min for up to 60 min following i.t. administration.
Moreover, tail flick latencies were converted into the percent maximal possible effect (% MPE) at the time of maximal peak of analgesia. % MPE were calculated according to the following formula: % MPE=[(Test latency)−(Saline latency)]/[(Cutoff)−(Saline latency)]×100. Data are expressed as mean±SEM of 5-8 animals for each dose.
Then, ED50 values were determined using the dose-response stimulation log(agonist) vs response (four parameters).
Data are expressed as mean±standard errors of the mean (SEM). All graphs and statistical analysis were performed using GraphPad Prism™ 7 (GraphPad software, La Jolla, CA, USA). […] A two-way ANOVA followed by Tukey's multiple comparisons test was used to determine the significant differences in changes in body temperature between different concentrations of compounds and saline (FIG. 9). The % MPE for the tail-flick test and the areas under the curve for the formalin test were analyzed using a one-way ANOVA followed by a Dunnett's multiple comparisons test to compare different concentrations of compounds and saline treatment (FIGS. 2B, 4B, 7A-B and 8B-D). […] Nonlinear regression using three parameters was performed for % of ileum relaxation and IC50 value was obtained from the resulting dose-response curve (FIG. 11). A difference in response was considered significant with p-values *p<0.05, **p<0.01, ***p<0.001 and **p<0.0001.

Row | SMILES | IC50 [1] | tail-flick latency at the lowest dose ([2]; 10 μg/kg i.t. (data not shown)) | ED50, tail-flick test ([2]; i.t.) | tail-flick latency time compared to saline injection [2] | % MPE ([2]; tail-flick, two higher doses i.t.) | dose at which analgesic effect / MPE reached a plateau ([2]; tail-flick, i.t.) | latency of the tail-flick reflex compared to baseline ([2]; 61 nmol/kg i.t.) | tail-flick latency at low doses ([2]; doses inferior to 3 nmol/kg i.t. (data not shown)) | antinociceptive effect compared with the other tested compounds ([2]; equimolar doses (61 nmol/kg i.t.)) | MPE plateau at the tested doses ([2]; tail-flick, 3 to 61 nmol/kg i.t.) | % MPE ([2]; tail-flick, highest dose i.t.)
1 | CC(C)C[C@H](NC(=O)[C@H](Cc1ccc(O)cc1)NC(=O)[C@@H]1CC=CC[C@H](N)C(=O)N[C@@H](CCCCN)C(=O)N[C@@H](CCCCN)C(=O)N1)C(=O)O [compound 34, c[G(All)KKG(All)]YL] (H-[AllylGly]KK[AllylGly]YL-OH; staple 1-4) | 199 µM and 100 µM | no apparent increase in latency | 48.52 μg/kg and 61 nmol/kg | significantly increased | at least 98% | around 90 μg/kg | – | – | – | – | –
2 | NCCCC[C@@H]1NC(=O)[C@H](CCCCN)NC(=O)[C@@H](N)CC=CC[C@@H](C(=O)N[C@@H](Cc2ccc(O)cc2)C(=O)N[C@@H](CC2CCCC2)C(=O)O)NC1=O [compound 67, c[G(All)KKG(All)]YA(cyclopentyl)] (H-[AllylGly]KK[AllylGly]Y[Ala(cPent)]-OH; staple 1-4) | > 100 µM | – | 8.14 nmol/kg | significantly increased | – | – | sustainably increased latency | no apparent increase in latency | highest antinociceptive effect | did not reach a plateau | at least 91%

From patent publication US12358948B2, “Neurotensinergic agonists and methods of using same preventing or treating pain” (priority 2019, dated 2025)
